Data set [1] can be described thus: Freeze/thaw stability of QC samples. It is filed as in vitro ADME. To be noted: QC in 70 g/L albumin in PBS, two cycles of freezing and thawing, LC-MS/MS. How it is done:
(§1) Stability of analytes in processed samples was determined at six independent days for a time span of 20 h in the autosampler. Deviations of standing samples to freshly measured samples were below 19% at the LLOQ and below 9% for other QC levels for each analyte, respectively (Additional file 4). Stability of analytes in biological matrix was determined by consecutive cycles of freezing and thawing as well as extended intervals at room temperature from thawing to processing (approximately one hour).
(§2) Lyophilized authentic peptide standards were dissolved and diluted in a 70 g/L Albumin (from human serum, lyophilized, ≥ 99%, Sigma-Aldrich) in PBS (Sigma-Aldrich, St. Louis, MO, USA) solution. Internal standards C37^IS and C42^IS were dissolved in Milli-Q water (Millipore, Brussels, Belgium) containing 0.1% (v/v) formic acid (≥ 95%, Sigma-Aldrich) whereas C22^IS was only dissolved in ultrapure water. Mixtures of CAAPs used as calibration standards (calibrants) and quality control samples (QCs) were prepared as stock solution to a final concentration of 14 µM, respectively, (expect C40^SNP which was 5 µM) with subsequent serial dilutions. Calibrants and QCs were obtained from separate serial dilutions. Internal standard solution was prepared by adding equal volumes of each IS yielding a final concentration of 0.8 µM, respectively. All samples used for method development and validation were prepared and stored in 0.5 mL Protein LoBind Tubes (Eppendorf AG, Hamburg, Germany) in aliquots at − 80 °C until use.
(§3) Working range of calibrants was defined based on CAAPs detected in samples from healthy donors (set to approximate lower limit of quantification) and in samples from septic patients (set to middle to high calibration range) which were re-analyzed from a previously work[46]. Nine calibrants were used in total ranging from 0.01 µM to 1.5 µM thereby covering more than two orders of magnitude in concentration. Linearity was assessed determining mean linear regression coefficients of each calibration curve from 0.01 to 1.5 µM in eight independent analytical runs. However, respective LLOQs (lower limit of quantification) and ULOQs (upper limit of quantification) were defined individually based on natural occurrence (see above) and results from validation parameter directly affected individual working ranges (carry-over, specificity). Four QC samples were prepared and measured in total (QC1, QC2, QC3, and QC4) to cover the entire range of calibration. However, three QCs for each of the respective analytes were used for method validation. Carry-over was determined measuring pure albumin solutions prepared without internal standards (but equal amount and concentration of water/formic acid solution as regular internal standard solution, “blank albumin sample”) directly after the respective highest calibrants. Peak areas were compared to peak areas from respective LLOQ samples (prepared with regular internal standard solution). Specificity was assessed using single compounds at respective highest calibrant level which were prepared and calculated as described for carry-over. The specificity of analytes towards internal standards was determined using pure albumin solution with internal standard (“zero albumin sample”). Accuracy and precision was determined by back-calculated concentrations from repeated measurements of the same QC samples during one analytical run (within-run repeatability, n = 5) and from freshly prepared samples during five independent analytical runs (between-run, n = 5). Due to the unavailability of analyte-free biological matrix, selectivity of analytes were assessed in pure albumin solution containing internal standards. Matrix effects were determined calculating recovery rates and precision of each compound in human blood samples. Direct comparison between different anticoagulants (EDTA, lithium-heparin) and serum was performed using whole blood from the same human donor. […]

Data set [2] can be described thus: Benchtop stability of QC samples at room temperature. It is filed as in vitro ADME. To be noted: QC in 70 g/L albumin in PBS, 60 min. at room temperature, LC-MS/MS. How it is done: as §1, §2, §3
Where [3] appears, read: QC2 (0.025 µM; C40^SNP see Table 1).
Where [4] appears, read: QC3 (0.3 µM; C40^SNP 0.1073 µM).

Ends that are not written are not given here.

In the case of “MFLEAIPMSIPPEVKFNKPFVFLMIEQNTKSPLFMGKVVNPTQK [C44^WT]”, in data set [1] (setting [3]), the freeze/ thaw stability, accuracy (mean of n=3) came out at 110% and the “freeze/ thaw stability, deviation from freshly processed QCs (mean of n=3)” value (“freeze/ thaw stability, deviation” below) was -4%. Besides, in data set [1] (setting [4]), the freeze/ thaw stability, accuracy (mean of n=3) amounted to 115% and the “freeze/ thaw stability, deviation” value is recorded as -1%. In addition, in data set [2] (setting [3]), the benchtop stability, accuracy (mean of n=3) stood at 117% and the “benchtop stability, deviation from freshly processed QCs (mean of n=3)” value (“benchtop stability, deviation” for short) is 1%. Further, in data set [2] (setting [4]), the benchtop stability, accuracy (mean of n=3) stood at 114% and the “benchtop stability, deviation” value is -2%.
Turning to “MSIPPEVKFNKPFVFLMIDQNTKSPLFMGKVVNPTQK [C37^SNP]”, in data set [1] (setting [3]), the freeze/ thaw stability, accuracy (mean of n=3) turned out to be 104% and the “freeze/ thaw stability, deviation” value came to 0%. Besides, in data set [1] (setting [4]), the freeze/ thaw stability, accuracy (mean of n=3) was determined as 98% and the “freeze/ thaw stability, deviation” value is recorded as -1%. In data set [2] (setting [3]), the benchtop stability, accuracy (mean of n=3) amounted to 103% and the “benchtop stability, deviation” value came out at 0%. In addition, in data set [2] (setting [4]), the benchtop stability, accuracy (mean of n=3) amounted to 99% and the “benchtop stability, deviation” value is on record as -1%.
“MSIPPEVKFNKPFVFLMIEQNTKSPLFMGKVVNPTQK [C37^WT]”: in data set [1] (setting [3]), the freeze/ thaw stability, accuracy (mean of n=3) was determined as 114% and the “freeze/ thaw stability, deviation” value is on record as 9%. In data set [1] (setting [4]), the freeze/ thaw stability, accuracy (mean of n=3) came out at 103% and the “freeze/ thaw stability, deviation” value is 1%. Besides, in data set [2] (setting [3]), the benchtop stability, accuracy (mean of n=3) was found to be 106% and the “benchtop stability, deviation” value was found to be 1%. For the same sequence, in data set [2] (setting [4]), the benchtop stability, accuracy (mean of n=3) amounted to 101% and the “benchtop stability, deviation” value was -1%.
“SIPPEVKFNKPFVFLMIDQNTKSPLFMGKVVNPTQK [C36^SNP]”: in data set [1] (setting [3]), the freeze/ thaw stability, accuracy (mean of n=3) worked out at 104% and the “freeze/ thaw stability, deviation” value was determined as 2%. In addition, in data set [1] (setting [4]), the freeze/ thaw stability, accuracy (mean of n=3) came out at 99% and the “freeze/ thaw stability, deviation” value was -2%. Further, in data set [2] (setting [3]), the benchtop stability, accuracy (mean of n=3) was found to be 101% and the “benchtop stability, deviation” value was -1%. Besides, in data set [2] (setting [4]), the benchtop stability, accuracy (mean of n=3) came out at 98% and the “benchtop stability, deviation” value was -2%.
As to “SIPPEVKFNKPFVFLMIEQNTKSPLFMGKVVNPTQK [C36^WT]”, in data set [1] (setting [3]), the freeze/ thaw stability, accuracy (mean of n=3) was found to be 106% and the “freeze/ thaw stability, deviation” value was determined as 4%. In addition, in data set [1] (setting [4]), the freeze/ thaw stability, accuracy (mean of n=3) stood at 98% and the “freeze/ thaw stability, deviation” value is recorded as -1%. In data set [2] (setting [3]), the benchtop stability, accuracy (mean of n=3) was determined as 106% and the “benchtop stability, deviation” value is recorded as 4%. In data set [2] (setting [4]), the benchtop stability, accuracy (mean of n=3) amounted to 98% and the “benchtop stability, deviation” value was -1%.

These data come from publication PMC8907207, “Multiplex quantification of C-terminal alpha-1-antitrypsin peptides provides a novel approach for characterizing systemic inflammation” (Scientific Reports, 2022).
